Laboratory results: ChEMBL document CHEMBL5370589, “Heterologous Production and Biosynthesis of Threonine-16:0dioic acids with a Hydroxamate Moiety” (J Nat Prod, 2023)
Calls of active or inactive are those of the source. The calls are words filed in the database; no cut-off is given here.

Legend:
[1] = Metal chelating activity assessed as compound-[…] complex formation at 10 to 100 uM by chrome-azurol S assay; conditions: dose 10-100 µM
[2] = tested on: Staphylococcus aureus; assay: Antibiotic activity against Staphylococcus aureus Newman assessed as reduction in bacterial cell growth at 0.03 to 64 microg/ml; type: functional, organism-based; conditions: dose 0.03-64 µg/ml
[3] = tested on: Escherichia coli; assay: Antibiotic activity against wild-type Escherichia coli BW25113 assessed as reduction in bacterial cell growth at 0.03 to 64 microg/ml; type: functional, organism-based; conditions: dose 0.03-64 µg/ml
[4] = tested on: Staphylococcus carnosus; assay: Antibiotic activity against Staphylococcus carnosus DSM-20501 assessed as reduction in bacterial cell growth at 0.03 to 64 microg/ml; type: functional, organism-based; conditions: dose 0.03-64 µg/ml
[5] = tested on: Bacillus subtilis; assay: Antibiotic activity against Bacillus subtilis DSM-10 assessed as reduction in bacterial cell growth at 0.03 to 64 microg/ml; type: functional, organism-based; conditions: dose 0.03-64 µg/ml
[6] = tested on: Kocuria rhizophila; assay: Antibiotic activity against Kocuria rhizophila DSM-348 assessed as reduction in bacterial cell growth at 0.03 to 64 microg/ml; type: functional, organism-based; conditions: dose 0.03-64 µg/ml
[7] = tested on: Enterococcus mundtii; assay: Antibiotic activity against Enterococcus mundtii DSM-4840 assessed as reduction in bacterial cell growth at 0.03 to 64 microg/ml; type: functional, organism-based; conditions: dose 0.03-64 µg/ml
[8] = tested on: Pseudomonas putida; assay: Antibiotic activity against Pseudomonas putida assessed as reduction in bacterial cell growth at 0.03 to 64 microg/ml; type: functional, organism-based; conditions: dose 0.03-64 µg/ml
[9] = tested on: Micrococcus luteus; assay: Antibiotic activity against Micrococcus luteus DSM-20030 assessed as reduction in bacterial cell growth at 0.03 to 64 microg/ml; type: functional, organism-based; conditions: dose 0.03-64 µg/ml
[10] = tested on: Erwinia persicina; assay: Antibiotic activity against Erwinia persicina DSM-19328 assessed as reduction in bacterial cell growth at 0.03 to 64 microg/ml; type: functional, organism-based; conditions: dose 0.03-64 µg/ml
[11] = tested on: HepG2; assay: Cytotoxicity against human HepG2 cells assessed as reduction in cell viability; type: toxicity, cell-based
[12] = Metal chelating activity assessed as compound-[…] complex formation by chrome-azurol S assay
[13] = Potency index, ratio of deferoxamine EC50 to compound EC50 for metal chelating activity assessed as compound-[…] complex formation by chrome-azurol S assay

SMILES | Activity [1] | EC50 [12] | Ratio EC50 [13] | Activity [2] | Activity [3] | Activity [4] | Activity [5] | Activity [6] | Activity [7] | Activity [8] | Activity [9] | Activity [10] | Activity [11]
CC(=O)N[C@@H](CSC(CCCCCCCCCCCCCC(=O)O)C(=O)N[C@@H](C(=O)O)[C@@H](C)O)C(=O)O (stereo partly specified) | inactive | – | – | inactive | inactive | inactive | inactive | inactive | inactive | inactive | inactive | inactive | Non-Toxic
CC(CCCCCCCCCCCCC(=O)N(O)[C@@H](C(=O)O)[C@@H](C)O)C(=O)O (stereo partly specified) | – | 75 µM | – | – | – | – | – | – | – | – | – | – | –

The remaining compounds from weak to strong by EC50 [12], led by results:

Activity [1] | EC50 [12] | Ratio EC50 [13] | SMILES | Activity [2] | Activity [3] | Activity [4] | Activity [5] | Activity [6] | Activity [7] | Activity [8] | Activity [9] | Activity [10] | Activity [11]
– | 58 µM | 5 | C[C@@H](O)[C@H](C(=O)O)N(O)C(=O)CCCCCCCCCCCCCCC(=O)O | inactive | inactive | inactive | inactive | inactive | inactive | inactive | inactive | inactive | Non-Toxic
– | 18 µM | – | O=C(O)CN(CCN(CC(=O)O)CC(=O)O)CC(=O)O [EDETIC ACID] | – | – | – | – | – | – | – | – | – | –
– | 11 µM | – | CC(=O)N(O)CCCCCNC(=O)CCC(=O)N(O)CCCCCNC(=O)CCC(=O)N(O)CCCCCN [DEFEROXAMINE] | – | – | – | – | – | – | – | – | – | –
